Laboratory results published in ChEMBL document CHEMBL1201862, “PubChem BioAssay data set” (2004).
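How tested: cells in 96-well plates exposed to compound for 48 hours at five concentrations. Abbreviation: GI50, concentration required for 50% inhibition of growth.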 Calls of active or inactive are those of the source. No stated cut-off is given here; in the data, active = GI50 up to about 1.1 µM and inactive = higher.

Tests used:
Test in all cases: NCI-60 cell line screen, 48 h
[1] = test system: CAKI-1
[2] = test system: CCRF-CEM
[3] = test system: DU-145
[4] = test system: EKVX
[5] = test system: HCT-15
[6] = test system: HT-29
[7] = test system: IGROV-1
[8] = test system: LOX IMVI
[9] = test system: NCI-H226
[10] = test system: OVCAR-8
[11] = test system: PC-3
[12] = test system: RPMI-8226
[13] = test system: RXF 393
[14] = test system: SF-268
[15] = test system: SK-MEL-2
[16] = test system: SNB-19
[17] = test system: T47D
[18] = test system: U-251
[19] = test system: UACC-257

SMILES	GI50 [1]	GI50 [2]	GI50 [3]	GI50 [4]	GI50 [5]	GI50 [6]	GI50 [7]	GI50 [8]	GI50 [9]	GI50 [10]	GI50 [11]	GI50 [12]	GI50 [13]	GI50 [14]	GI50 [15]	GI50 [16]	GI50 [17]	GI50 [18]	GI50 [19]
C#CC(O)/C=C/C(O)CCCC(O)CC#CC(O)C#CCCCCC(O)/C=C/CCCC(=O)CCCCCCCCCCCCCCCC(O)C(O)C#CC(=O)O (stereo not given)	> 25 µM (inactive)	> 25 µM (inactive)	> 25 µM (inactive)	> 25 µM (inactive)	> 25 µM	> 25 µM (inactive)	8.55 µM (inactive)	5.37 µM (inactive)	> 25 µM (inactive)	> 25 µM (inactive)	> 25 µM (inactive)	> 25 µM (inactive)	9.64 µM (inactive)	> 25 µM (inactive)	> 25 µM (inactive)	> 25 µM (inactive)	14.2 µM (inactive)	> 25 µM (inactive)	> 25 µM (inactive)
COC(=O)NC(=O)NC(Cc1ccccc1)NC(=O)OCc1ccccc1 (stereo not given)	> 100 µM (inactive)	> 100 µM (inactive)	> 100 µM (inactive)	> 100 µM (inactive)	> 100 µM	> 100 µM (inactive)	70.8 µM (inactive)	> 100 µM (inactive)	> 100 µM (inactive)	74.1 µM (inactive)	> 100 µM (inactive)	> 100 µM (inactive)	20.5 µM (inactive)	48.1 µM (inactive)	63.2 µM (inactive)	42.7 µM (inactive)	> 100 µM (inactive)	44.1 µM (inactive)	> 100 µM (inactive)
CCOC(=O)c1c(C)n(-c2ccc(Cl)cc2)c2c1cc(O)c1[nH]c3c(c12)CCCC3	> 100 µM (inactive)	32.4 µM (inactive)	> 100 µM (inactive)	75.7 µM (inactive)	> 100 µM	30.2 µM (inactive)	44.4 µM (inactive)	29.4 µM (inactive)	> 100 µM (inactive)	55.6 µM (inactive)	41 µM (inactive)	33.9 µM (inactive)	19.5 µM (inactive)	50.5 µM (inactive)	29.6 µM (inactive)	46.3 µM (inactive)	> 100 µM (inactive)	38.3 µM (inactive)	47 µM (inactive)
Sc1nnc(-c2ccccc2Nc2ccccc2-c2nnc(S)n2-c2ccccc2)n1-c1ccccc1	31.3 µM (inactive)	32.5 µM (inactive)	56.6 µM (inactive)	32.4 µM (inactive)	34.3 µM	35.5 µM (inactive)	16.4 µM (inactive)	42.5 µM (inactive)	29.7 µM (inactive)	72.6 µM (inactive)	60.3 µM (inactive)	20 µM (inactive)	35.6 µM (inactive)	69.7 µM (inactive)	27 µM (inactive)	46.9 µM (inactive)	23.9 µM (inactive)	30.1 µM (inactive)	44.3 µM (inactive)
O=Cc1ccc2c(c1)CC1(C2)Cc2ccc(C=O)cc2C1	44.9 µM (inactive)	1.68 µM (inactive)	35.5 µM (inactive)	28.2 µM (inactive)	7.03 µM	24.5 µM (inactive)	21.5 µM (inactive)	6.07 µM (inactive)	22.8 µM (inactive)	7.26 µM (inactive)	17.1 µM (inactive)	0.274 µM (active)	3.61 µM (inactive)	13.4 µM (inactive)	11.8 µM (inactive)	25.1 µM (inactive)	25.8 µM (inactive)	8.69 µM (inactive)	18.8 µM (inactive)
CCCC(=O)[O-].[Na+] [SODIUM BUTYRATE]	2770 µM (inactive)	2050 µM (inactive)	2370 µM (inactive)	18700 µM (inactive)	10600 µM	4000 µM (inactive)	4450 µM (inactive)	3520 µM (inactive)	6250 µM (inactive)	1990 µM (inactive)	7100 µM (inactive)	243 µM (inactive)	8390 µM (inactive)	8280 µM (inactive)	4720 µM (inactive)	8170 µM (inactive)	2420 µM (inactive)	4790 µM (inactive)	1000 µM (inactive)
O=[N+]([O-])c1ccc(O)c(/C=N/c2nc(-c3ccccc3)cs2)c1	77.6 µM (inactive)	43.3 µM (inactive)	30.4 µM (inactive)	31.3 µM (inactive)	29.1 µM	34.2 µM (inactive)	24.2 µM (inactive)	15.8 µM (inactive)	24.7 µM (inactive)	25.9 µM (inactive)	33.3 µM (inactive)	8.95 µM (inactive)	20.8 µM (inactive)	27.9 µM (inactive)	24.4 µM (inactive)	29 µM (inactive)	24.3 µM (inactive)	32.2 µM (inactive)	45.9 µM (inactive)
Nc1nc2c(c(-c3cccc(Cl)c3)n1)COC/C2=C\c1cccc(Cl)c1	> 100 µM (inactive)	> 100 µM (inactive)	80.2 µM (inactive)	> 100 µM (inactive)	> 100 µM	> 100 µM (inactive)	94.2 µM (inactive)	> 100 µM (inactive)	> 100 µM (inactive)	> 100 µM (inactive)	> 100 µM (inactive)	> 100 µM (inactive)	> 100 µM (inactive)	> 100 µM (inactive)	> 100 µM (inactive)	> 100 µM (inactive)	82.6 µM (inactive)	> 100 µM (inactive)	47.2 µM (inactive)
COc1cccc(NC(=O)CC(=O)N2N=C(C)C(/N=N/c3ccc(S(=O)(=O)CCOS(=O)(=O)O)cc3)C2=O)c1 (stereo not given)	2.45 µM (inactive)	2.62 µM (inactive)	14.8 µM (inactive)	17.7 µM (inactive)	3.42 µM	3.76 µM (inactive)	4.86 µM (inactive)	1.5 µM (inactive)	4.66 µM (inactive)	3.18 µM (inactive)	3.85 µM (inactive)	2.75 µM (inactive)	4.06 µM (inactive)	7.82 µM (inactive)	2.04 µM (inactive)	17 µM (inactive)	11.4 µM (inactive)	4.89 µM (inactive)	8.93 µM (inactive)
COc1cc(/C=C/C=C2\CC(C)C/C(=C\C=C\c3ccc(O)c(OC)c3)C2=O)ccc1O (stereo not given)	12.1 µM (inactive)	1.14 µM (inactive)	19.5 µM (inactive)	10.3 µM (inactive)	25.1 µM	4.08 µM (inactive)	8.41 µM (inactive)	12.4 µM (inactive)	14.8 µM (inactive)	11.5 µM (inactive)	11.3 µM (inactive)	7.13 µM (inactive)	4.55 µM (inactive)	10.3 µM (inactive)	17.1 µM (inactive)	23 µM (inactive)	7.48 µM (inactive)	12.1 µM (inactive)	20.2 µM (inactive)
C=CCOC(=O)/C(=C\c1ccc(OC)c(OC)c1)c1ccc(OC)c(OC)c1	62.2 µM (inactive)	30.8 µM (inactive)	> 100 µM (inactive)	88.5 µM (inactive)	> 100 µM	28.1 µM (inactive)	> 100 µM (inactive)	> 10 µM (inactive)	> 100 µM (inactive)	> 100 µM (inactive)	33.1 µM (inactive)	13.4 µM (inactive)	27.9 µM (inactive)	52.7 µM (inactive)	47.9 µM (inactive)	59 µM (inactive)	29.8 µM (inactive)	52.4 µM (inactive)	57.5 µM (inactive)
O=[N+]([O-])/C=C/c1cc2ccccc2[nH]1	17.4 µM (inactive)	2.99 µM (inactive)	15.4 µM (inactive)	29.2 µM (inactive)	21.5 µM	15.8 µM (inactive)	12.2 µM (inactive)	14.2 µM (inactive)	19.1 µM (inactive)	21.6 µM (inactive)	15.2 µM (inactive)	2.96 µM (inactive)	13.3 µM (inactive)	16.9 µM (inactive)	19.3 µM (inactive)	17.5 µM (inactive)	16.2 µM (inactive)	12.4 µM (inactive)	15.4 µM (inactive)
CC(=O)[C@]1(O)Cc2c(O)c3c(c(O)c2[C@@H](OC2CC(N)C(O)C(C)O2)C1)C(=O)c1c(OCc2ccccc2)cccc1C3=O (stereo not given in full)	1.64 µM (inactive)	0.202 µM (active)	1.63 µM (inactive)	3.05 µM (inactive)	1.39 µM	1.51 µM (inactive)	7.98 µM (inactive)	0.604 µM (active)	1.09 µM (active)	1.48 µM (inactive)	1.26 µM (inactive)	1.14 µM (inactive)	2.63 µM (inactive)	1.75 µM (inactive)	17.4 µM (inactive)	1.5 µM (inactive)	2.32 µM (inactive)	1.07 µM (active)	4.06 µM (inactive)
CC(C)N(CCCNc1c2ccccc2nc2cccc([N+](=O)[O-])c12)C(C)C	< 0.0418 µM (active)	< 0.0173 µM (active)	< 0.01 µM (active)	< 0.015 µM (active)	0.0191 µM	< 0.01 µM (active)	< 0.0385 µM (active)	< 0.0206 µM (active)	0.0481 µM (active)	< 0.0167 µM (active)	< 0.0203 µM (active)	< 0.01 µM (active)	0.0153 µM (active)	< 0.0224 µM (active)	0.0473 µM (active)	< 0.0224 µM (active)	< 0.0269 µM (active)	< 0.0163 µM (active)	< 0.0231 µM (active)
COCCOC(=O)C1=C(O)c2ccccc2S(=O)(=O)N1C	> 100 µM (inactive)	> 100 µM (inactive)	> 100 µM (inactive)	> 100 µM (inactive)	> 100 µM	> 100 µM (inactive)	> 100 µM (inactive)	> 100 µM (inactive)	> 100 µM (inactive)	> 100 µM (inactive)	> 100 µM (inactive)	> 100 µM (inactive)	> 100 µM (inactive)	> 100 µM (inactive)	> 100 µM (inactive)	> 100 µM (inactive)	> 100 µM (inactive)	> 100 µM (inactive)	> 100 µM (inactive)
